Data published in PubChem BioAssay (NCI).
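Growth conditions: 96-well plates. Treatment: test compound, 48 hours, 5 concentrations. Analysis: linear interpolation between bracketing concentrations; unreached endpoints set to highest concentration. At the GI50, growth is halved. Definition used: TGI = concentration required for complete inhibition of growth.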

Tests used:
Experiment in all cases: growth of human tumour cells (NCI), 48 h
SK-OV-3 ovarian = tested on: SK-OV-3 ovarian
OVCAR-4 ovarian = tested on: OVCAR-4 ovarian
RPMI-8226 leukemia = tested on: RPMI-8226 leukemia
PC-3 prostate = tested on: PC-3 prostate
SK-MEL-2 melanoma = tested on: SK-MEL-2 melanoma
NCI/ADR-RES ovarian = tested on: NCI/ADR-RES ovarian
OVCAR-5 ovarian = tested on: OVCAR-5 ovarian
T-47D breast = tested on: T-47D breast
MDA-MB-435 = tested on: MDA-MB-435
RXF 393 renal = tested on: RXF 393 renal
LOX IMVI melanoma = tested on: LOX IMVI melanoma
HCT-116 colon = tested on: HCT-116 colon
BT-549 breast = tested on: BT-549 breast
CAKI-1 renal = tested on: CAKI-1 renal
SK-MEL-28 melanoma = tested on: SK-MEL-28 melanoma
SW-620 colon = tested on: SW-620 colon
OVCAR-3 ovarian = tested on: OVCAR-3 ovarian
COLO 205 colon = tested on: COLO 205 colon
SNB-75 CNS = tested on: SNB-75 CNS
HCC-2998 colon = tested on: HCC-2998 colon
HL-60(TB) leukemia = tested on: HL-60(TB) leukemia
NCI-H460 lung = tested on: NCI-H460 lung
HT29 colon = tested on: HT29 colon
MOLT-4 leukemia = tested on: MOLT-4 leukemia
SNB-19 CNS = tested on: SNB-19 CNS
MCF7 breast = tested on: MCF7 breast
CCRF-CEM leukemia = tested on: CCRF-CEM leukemia
HOP-62 NSCLC = tested on: HOP-62 NSCLC
ACHN renal = tested on: ACHN renal
IGROV1 ovarian = tested on: IGROV1 ovarian
SF-539 CNS = tested on: SF-539 CNS
M14 melanoma = tested on: M14 melanoma
TK-10 renal = tested on: TK-10 renal
786-0 renal = tested on: 786-0 renal
HOP-92 NSCLC = tested on: HOP-92 NSCLC
MDA-MB-231 breast = tested on: MDA-MB-231 breast
NCI-H522 lung = tested on: NCI-H522 lung
UACC-257 melanoma = tested on: UACC-257 melanoma
UACC-62 melanoma = tested on: UACC-62 melanoma
NCI-H226 lung = tested on: NCI-H226 lung
SK-MEL-5 melanoma = tested on: SK-MEL-5 melanoma
OVCAR-8 ovarian = tested on: OVCAR-8 ovarian
A498 renal = tested on: A498 renal
U251 CNS = tested on: U251 CNS
HCT-15 colon = tested on: HCT-15 colon
SN12C renal = tested on: SN12C renal
K-562 leukemia = tested on: K-562 leukemia
A549 NSCLC = tested on: A549 NSCLC
SF-268 CNS = tested on: SF-268 CNS
KM12 colon = tested on: KM12 colon
HS 578T breast = tested on: HS 578T breast
UO-31 renal = tested on: UO-31 renal
EKVX NSCLC = tested on: EKVX NSCLC
NCI-H23 lung = tested on: NCI-H23 lung
MALME-3M melanoma = tested on: MALME-3M melanoma
DU-145 prostate = tested on: DU-145 prostate
SF-295 CNS = tested on: SF-295 CNS

Cc1cc(Cl)ccc1OCc1nn2c(CCCCc3nnc4sc(COc5ccc(Cl)cc5C)nn34)nnc2s1
GI50 (SK-OV-3 ovarian): 35.4 µM | TGI (SK-OV-3 ovarian): 73.1 µM | GI50 (OVCAR-4 ovarian): 21.2 µM | TGI (OVCAR-4 ovarian): > 69.6 µM | GI50 (RPMI-8226 leukemia): 18.9 µM | TGI (RPMI-8226 leukemia): > 100 µM | GI50 (PC-3 prostate): 22.4 µM | TGI (PC-3 prostate): > 80.1 µM | GI50 (SK-MEL-2 melanoma): > 63.4 µM | TGI (SK-MEL-2 melanoma): > 89.5 µM | GI50 (NCI/ADR-RES ovarian): 23 µM | TGI (NCI/ADR-RES ovarian): 74 µM | GI50 (OVCAR-5 ovarian): > 100 µM | TGI (OVCAR-5 ovarian): > 100 µM | GI50 (T-47D breast): 14.6 µM | TGI (T-47D breast): 57.2 µM | GI50 (MDA-MB-435): 7.12 µM | TGI (MDA-MB-435): > 57.8 µM | GI50 (RXF 393 renal): 18 µM | TGI (RXF 393 renal): 62.8 µM | GI50 (LOX IMVI melanoma): 28.2 µM | TGI (LOX IMVI melanoma): > 100 µM | GI50 (HCT-116 colon): 32.2 µM | TGI (HCT-116 colon): > 81 µM | GI50 (BT-549 breast): 11.6 µM | TGI (BT-549 breast): 51.8 µM | GI50 (CAKI-1 renal): 4.52 µM | TGI (CAKI-1 renal): > 55.3 µM | GI50 (SK-MEL-28 melanoma): 52.7 µM | TGI (SK-MEL-28 melanoma): > 100 µM | GI50 (SW-620 colon): 3.48 µM | TGI (SW-620 colon): > 41 µM | GI50 (OVCAR-3 ovarian): 7.99 µM | TGI (OVCAR-3 ovarian): 72.2 µM | GI50 (COLO 205 colon): 43.5 µM | TGI (COLO 205 colon): > 100 µM | GI50 (SNB-75 CNS): 13.8 µM | TGI (SNB-75 CNS): 51 µM | GI50 (HCC-2998 colon): 30.2 µM | TGI (HCC-2998 colon): > 100 µM | GI50 (HL-60(TB) leukemia): > 94.2 µM | TGI (HL-60(TB) leukemia): > 100 µM | GI50 (NCI-H460 lung): 24.7 µM | TGI (NCI-H460 lung): > 93.6 µM | GI50 (HT29 colon): 43.6 µM | TGI (HT29 colon): > 100 µM | GI50 (MOLT-4 leukemia): 25.5 µM | TGI (MOLT-4 leukemia): > 100 µM | GI50 (SNB-19 CNS): 48.9 µM | TGI (SNB-19 CNS): > 80.4 µM | GI50 (MCF7 breast): 21.9 µM | TGI (MCF7 breast): > 73.2 µM | GI50 (CCRF-CEM leukemia): 33.7 µM | TGI (CCRF-CEM leukemia): > 61.6 µM | GI50 (HOP-62 NSCLC): 32.2 µM | TGI (HOP-62 NSCLC): 58.5 µM | GI50 (ACHN renal): 34.1 µM | TGI (ACHN renal): > 100 µM | GI50 (IGROV1 ovarian): 28.4 µM | TGI (IGROV1 ovarian): > 100 µM | TGI (SF-539 CNS): 1.47 µM | GI50 (M14 melanoma): 45.9 µM | TGI (M14 melanoma): > 100 µM | GI50 (TK-10 renal): 26.2 µM | TGI (TK-10 renal): 74.2 µM | GI50 (786-0 renal): 26.7 µM | TGI (786-0 renal): 55.5 µM | GI50 (HOP-92 NSCLC): 34.2 µM | TGI (HOP-92 NSCLC): > 68.8 µM | GI50 (MDA-MB-231 breast): 17.7 µM | TGI (MDA-MB-231 breast): > 78.6 µM | GI50 (NCI-H522 lung): 20.8 µM | TGI (NCI-H522 lung): 61.7 µM | GI50 (UACC-257 melanoma): 8.41 µM | TGI (UACC-257 melanoma): > 100 µM | GI50 (UACC-62 melanoma): 22.6 µM | TGI (UACC-62 melanoma): > 100 µM | GI50 (NCI-H226 lung): 21.8 µM | TGI (NCI-H226 lung): 74.5 µM | GI50 (SK-MEL-5 melanoma): 1.68 µM | TGI (SK-MEL-5 melanoma): 9.75 µM | GI50 (OVCAR-8 ovarian): 8.99 µM | TGI (OVCAR-8 ovarian): > 83.1 µM | GI50 (A498 renal): 1.67 µM | TGI (A498 renal): 8.21 µM | GI50 (U251 CNS): 25.3 µM | TGI (U251 CNS): > 74.7 µM | GI50 (HCT-15 colon): 47.1 µM | TGI (HCT-15 colon): > 100 µM | GI50 (SN12C renal): 37.8 µM | TGI (SN12C renal): > 100 µM | GI50 (K-562 leukemia): > 73.2 µM | TGI (K-562 leukemia): > 100 µM | GI50 (A549 NSCLC): 27 µM | TGI (A549 NSCLC): > 100 µM | GI50 (SF-268 CNS): 23 µM | TGI (SF-268 CNS): > 76.7 µM | GI50 (KM12 colon): 17.2 µM | TGI (KM12 colon): > 100 µM | GI50 (HS 578T breast): 0.544 µM | GI50 (UO-31 renal): 14.5 µM | TGI (UO-31 renal): > 100 µM | GI50 (EKVX NSCLC): 11.3 µM | TGI (EKVX NSCLC): > 76.2 µM | GI50 (NCI-H23 lung): 29.8 µM | TGI (NCI-H23 lung): > 100 µM | GI50 (MALME-3M melanoma): 29.2 µM | TGI (MALME-3M melanoma): > 86.1 µM | GI50 (DU-145 prostate): 13.9 µM | TGI (DU-145 prostate): > 100 µM | GI50 (SF-295 CNS): 8.28 µM | TGI (SF-295 CNS): 76.2 µM
